Assay results: patent US10208033B2, “β-carboline, dihydro-β-carboline and tetrahydro-β-carboline alkaloid derivatives and preparation methods same and use in aspects of preventing and treating plant viruses, fungicides and insecticides” (NANKAI UNIVERSITY, priority 2013, dated 2019)
Like-named read-outs stand apart in the source and are kept apart here.

What was measured:
[1] = tested on: tobacco mosaic virus (TMV); assay: Anti-TMV in vitro effect (half-leaf soaking); type: cell-based, tobacco mosaic virus (host Nicotiana tabacum L.cv.Xanthi NN)
[2] = tested on: tobacco mosaic virus (TMV); assay: Anti-TMV in vivo inactivation; parameters: species or system tobacco mosaic virus (host Nicotiana tabacum L.cv.Xanthi NN)
[3] = tested on: tobacco mosaic virus (TMV); assay: Anti-TMV in vivo therapeutic effect; parameters: species or system tobacco mosaic virus (host Nicotiana tabacum L.cv.Xanthi NN)
[4] = tested on: tobacco mosaic virus (TMV); assay: Anti-TMV in vivo protective effect; parameters: species or system tobacco mosaic virus (host Nicotiana tabacum L.cv.Xanthi NN)
cucumber fusarium wilt = assay: Fungicidal (bactericidal) activity in vitro, PDA colony diameter; type: cell-based; details: 50 mg/kg
Cercospora arachidicola = assay: as above; type: cell-based; details: 50 mg/kg
Macrophoma kawatsukai = assay: as above; type: cell-based; details: 50 mg/kg
Alternaria solani = assay: as above; type: cell-based; details: 50 mg/kg
Fusarium graminearumt = assay: microbe, parasite or virus in culture; type: cell-based; details: 50 mg/kg
potato late blight = assay: microbe, parasite or virus in culture; type: cell-based
Sclerotinia scleotiorum = assay: Fungicidal (bactericidal) activity in vitro, PDA colony diameter; type: cell-based; details: 50 mg/kg
Botrytis cinerea = assay: as above; type: cell-based; details: 50 mg/kg
Rhizoctonia solani = assay: as above; type: cell-based; details: 50 mg/kg
Phytophthora capsici = assay: as above; type: cell-based; details: 50 mg/kg
Fusarium fujikuroi = assay: as above; type: cell-based; details: 50 mg/kg
Rhizoctonia cereali = assay: as above; type: cell-based; details: 50 mg/kg
Bipolaria maydis = assay: organism not typed; type: cell-based; details: 50 mg/kg
[5] = tested on: Colletotrichum orbiculare; assay: Fungicidal (bactericidal) activity in vitro, PDA colony diameter; type: cell-based; details: 50 mg/kg
armyworms = type: in vivo; details: concentration 600 mg/kg
cotton bollworms = assay: whole plant or invertebrate
Description: Experimental method of cotton bollworms: feed and drug mixing method: measure 3 mL of prepared solution and add it to about 27 g of newly prepared feed, thereby obtaining needed concentration through dilution by 10 times.

mosquito larvae = assay: whole plant or invertebrate
How it was run: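 Early fourth-instar Culex pipiens pallens larvae from an indoor colony, 10 per beaker, exposed to test compound at 5 ppm in water, diluted from a 1000 ppm acetone mother solution. Blank: water containing 0.5 mL test solvent.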

Row | SMILES | Relative inhibition rate (%) In vitro activity ([1]; treatment dose 100 μg/mL) [%] | Relative inhibition rate (%) In vitro activity ([1]; treatment dose 500 μg/mL) [%] | Relative inhibition rate (%) In vivo inactivation ([2]; treatment dose 100 μg/mL) [%] | Relative inhibition rate (%) In vivo inactivation ([2]; treatment dose 500 μg/mL) [%] | Relative inhibition rate (%) In vivo therapy ([3]; treatment dose 100 μg/mL) [%] | Relative inhibition rate (%) In vivo therapy ([3]; treatment dose 500 μg/mL) [%] | Relative inhibition rate (%) In vivo protection ([4]; treatment dose 100 μg/mL) [%] | Relative inhibition rate (%) In vivo protection ([4]; treatment dose 500 μg/mL) [%] | Bactericidal activity (%) Cucumber fusarium wilt (cucumber fusarium wilt) [%] | Bactericidal activity (%) Cercospora arachidicola (Cercospora arachidicola) [%] | Bactericidal activity (%) Macrophoma kawatsukai (Macrophoma kawatsukai) [%] | Bactericidal activity (%) Alternaria solani (Alternaria solani) [%] | Bactericidal activity (%) Fusarium graminearumt (Fusarium graminearumt) [%] | Bactericidal activity (%) potato late blight (potato late blight) [%] | Bactericidal activity (%) Sclerotinia scleotiorum (Sclerotinia scleotiorum) [%] | Bactericidal activity (%) Botrytis cinerea (Botrytis cinerea) [%] | Bactericidal activity (%) Rhizoctonia solani (Rhizoctonia solani) [%] | Bactericidal activity (%) Phytophthora capsici (Phytophthora capsici) [%] | Bactericidal activity (%) Fusarium fujikuroi (Fusarium fujikuroi) [%] | Bactericidal activity (%) Rhizoctonia cereali (Rhizoctonia cereali) [%] | also measured
1 | COc1ccccc1C=NNC(=O)[C@@H]1Cc2c([nH]c3ccccc23)[C@H](C)N1 [Ic-10, (1S, 3S)—N′-(2-methoxybenzylidene)-1-methyl-2,3,4,9-tetrahydropyridino [3,4-b] indol-3-formylhydrazine] | 0 | 38.5 | 0 | 43.2 | 10.9 | 36.4 | 0 | 34.8 | 26.9 | 23.5 | 88.9 | 45.0 | 72.4 | 44.0 | 64.7 | 77.3 | 32.9 | 63.2 | 21.4 | 78.4 | Bactericidal activity (%) Bipolaria maydis (Bipolaria maydis): 56.0%; Bactericidal activity (%) Colletotrichum orbiculare [5]: 40.7%; Armyworm Mortality (%) (armyworms): 25%; Cotton bollworm Mortality (%) (cotton bollworms; concentration 600 mg/kg): 30%; Mosquito larvae Mortality (%) (mosquito larvae; concentration 10 mg/kg, 24 h): 50%; Corn borer Mortality (%) (corn borers; concentration 600 mg/kg): 30%
2 | C[C@@H]1N[C@H](C(=O)NN=Cc2ccc3c(c2)OCCO3)Cc2c1[nH]c1ccccc21 [Ic-13] | 19.8 | 46.5 | 15.2 | 43.6 | 18.6 | 48.1 | 10.3 | 46 | 22.7 | 45.5 | 66.7 | 52.4 | 30.8 | 30.4 | 21.2 | 66.7 | 44.4 | 84.8 | 47.1 | 89.2 | Bactericidal activity (%) Bipolaria maydis (Bipolaria maydis): 52.0%; Bactericidal activity (%) Colletotrichum orbiculare [5]: 72.0%; Armyworm Mortality (%) (armyworms): 30%; Cotton bollworm Mortality (%) (cotton bollworms; concentration 600 mg/kg): 15%; Mosquito larvae Mortality (%) (mosquito larvae; concentration 10 mg/kg, 24 h): 60%; Corn borer Mortality (%) (corn borers; concentration 600 mg/kg): 35%
3 | C[C@@H]1N[C@H](C(=O)NN=Cc2ccc3cc(O)ccc3c2)Cc2c1[nH]c1ccccc21 [Ic-14, (1S, 3S)—N′-(6-hydroxynaphthalene-2-methylene)-1-methyl-2,3,4,9-tetrahydropyridino [3,4-b] indol-3-formylhydrazine] | 0 | 40.9 | 16.9 | 45.6 | 8.2 | 43.9 | 0 | 47.8 | 19.2 | 47.1 | 77.8 | 30.0 | 10.3 | 44.0 | 88.2 | 72.7 | 28.9 | 84.2 | 28.6 | 86.3 | Bactericidal activity (%) Bipolaria maydis (Bipolaria maydis): 56.0%; Bactericidal activity (%) Colletotrichum orbiculare [5]: 48.1%; Armyworm Mortality (%) (armyworms): 40%; Cotton bollworm Mortality (%) (cotton bollworms; concentration 600 mg/kg): 35%; Mosquito larvae Mortality (%) (mosquito larvae; concentration 10 mg/kg, 24 h): 75%; Corn borer Mortality (%) (corn borers; concentration 600 mg/kg): 45%
4 | C[C@@H]1N[C@H](C(=O)NN=Cc2ccncc2)Cc2c1[nH]c1ccccc21 [Ic-15, (1S, 3S)—N′-(pyridine-4-methylene)-1-methyl-2,3,4,9-tetrahydropyridino [3,4-b] indol-3-formylhydrazine] | 0 | 36.6 | 8.8 | 43.4 | 12.9 | 39.6 | 0 | 37.5 | 23.1 | 35.3 | 52.8 | 15.0 | 27.6 | 24.0 | 64.7 | 36.4 | 23.7 | 28.9 | 21.4 | 66.7 | Bactericidal activity (%) Bipolaria maydis (Bipolaria maydis): 28.0%; Bactericidal activity (%) Colletotrichum orbiculare [5]: 29.6%; Armyworm Mortality (%) (armyworms): 15%; Cotton bollworm Mortality (%) (cotton bollworms; in vivo): 15%; Mosquito larvae Mortality (%) (mosquito larvae; in vivo): 30%; Corn borer Mortality (%) (corn borers; in vivo): 20%
5 | C[C@@H]1N[C@H](C(=O)NN=Cc2cccnc2)Cc2c1[nH]c1ccccc21 [Ic-16, (1S, 3S)—N′-(pyridine-3-methylene)-1-methyl-2,3,4,9-tetrahydropyridino [3,4-b] indol-3-formylhydrazine] | 0 | 33.3 | 11.2 | 41 | 5.7 | 36.9 | 0 | 33.6 | 38.5 | 41.2 | 83.3 | 15.0 | 62.1 | 52.0 | 35.3 | 54.5 | 39.5 | 26.3 | 50.0 | 80.4 | Bactericidal activity (%) Bipolaria maydis (Bipolaria maydis): 32.0%; Bactericidal activity (%) Colletotrichum orbiculare [5]: 40.7%; Armyworm Mortality (%) (armyworms): 20%; Cotton bollworm Mortality (%) (cotton bollworms; in vivo): 10%; Mosquito larvae Mortality (%) (mosquito larvae; in vivo): 40%; Corn borer Mortality (%) (corn borers; in vivo): 30%
